Consider one compound from patent US20120316158A1, “OPHTHALMIC SOLUTION FOR TREATING OCULAR INFECTION COMPRISING LEVOFLOXACIN OR SALT THEREOF OR SOLVATE OF THE SAME, METHOD FOR TREATING OCULAR INFECTION, LEVOFLOXACIN OR SALT THEREOF OR SOLVATE OF THE SAME, AND USE THEREOF” (priority 2010, published 2012).

In one test the test system is MSSA. Briefly: MIC of clinical isolate from a patient suffering from an external ocular infection. It is filed as cell-based. The note with it: Staphylococcus aureus; MSSA clinical isolate from a patient with an external ocular infection. The procedure: MSSA (MIC=0.5 μg/mL with respect to levofloxacin) was isolated from a patient suffering from an external ocular infection.

The subject of test [1] is methicillin-sensitive Staphylococcus aureus. The settings on record: isolates from a patient suffering from bacterial keratitis; cited from earlier work.

The term MIC denotes the lowest concentration that inhibits growth of the organism.

`C[C@H]1COc2c(N3CCN(C)CC3)c(F)cc3c(=O)c(C(=O)O)cn1c23` [levofloxacin, Levofloxacin]: the minimal inhibitory concentration (MIC) with MSSA came to 0.5 µg/mL. Also, the “clinically isolated MSSA resistant to levofloxacin” value in test [1] is reported as “about 10%”.
